Measurements taken from ChEMBL document CHEMBL1123179, “4-Amino-2-(substituted methyl)-2-butenoic acids: substrates and potent inhibitors of gamma-aminobutyric acid aminotransferase” (J Med Chem, 1986).

Biological target: 4-aminobutyrate aminotransferase, mitochondrial (Sus scrofa, UniProt P80147)
Assay: Compound was tested for the inhibitory effect against Gamma-amino-N-butyrate transaminase from pig brain

4-aminobutyrate aminotransferase, mitochondrial, sequence (P80147 whole entry): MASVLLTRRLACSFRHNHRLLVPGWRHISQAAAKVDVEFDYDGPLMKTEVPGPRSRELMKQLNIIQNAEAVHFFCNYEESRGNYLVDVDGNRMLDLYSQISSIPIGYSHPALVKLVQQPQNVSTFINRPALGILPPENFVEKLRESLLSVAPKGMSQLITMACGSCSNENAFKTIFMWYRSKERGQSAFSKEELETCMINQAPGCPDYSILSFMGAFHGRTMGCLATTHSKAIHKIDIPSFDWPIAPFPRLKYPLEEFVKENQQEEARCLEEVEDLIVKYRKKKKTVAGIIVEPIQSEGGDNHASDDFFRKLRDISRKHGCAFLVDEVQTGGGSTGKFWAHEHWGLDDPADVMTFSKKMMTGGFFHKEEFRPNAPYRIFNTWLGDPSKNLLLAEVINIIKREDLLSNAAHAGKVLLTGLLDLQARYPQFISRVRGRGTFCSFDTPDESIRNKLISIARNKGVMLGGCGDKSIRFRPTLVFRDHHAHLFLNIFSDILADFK

Ki	SMILES
24 µM	NC/C=C(\CCl)C(=O)O
5 µM	NC/C=C(\CO)C(=O)O

SMILES	Ki
NC/C=C(\CF)C(=O)O	19 µM
